“Also recorded” adds a separate entry of the source.
How the values were obtained:
Format in all cases: physicochemical
[1] = In vitro plasma compatibility of AM-2-19 in human plasma
Source text: The in vitro plasma compatibility of AM-2-19 in human plasma is represented below: […]

[2] = Solution stability of AM-2-19 in IV-compatible solvents (FIG. 1); settings: IV-compatible solvents such as 5% dextrose in water (D5W)
[3] = Solubility of AM-2-19-FB in D5W/DSG-PEG2000; settings: aqueous with cosolvent or surfactant or cyclodextrin
[4] = ratio 1:0.1, final concentration AM-2-19 0.09 mg/mL
[5] = ratio 1:0.1, final concentration AM-2-19 0.18 mg/mL
[6] = ratio 1:0.1, final concentration AM-2-19 0.45 mg/mL
[7] = ratio 1:1, final concentration AM-2-19 0.50 mg/mL
[8] = ratio 1:1, final concentration AM-2-19 1.00 mg/mL
[9] = ratio 1:1, final concentration AM-2-19 2.50 mg/mL

For `CC1OC(OC2/C=C/C=C/C=C/C=C/C=C/C=C/C=C/[C@H](C)[C@@H](O)[C@@H](C)[C@H](C)OC(=O)C[C@H](O)C[C@H](O)CC[C@@H](O)[C@H](O)C[C@H](O)C[C@]3(O)C[C@H](O)[C@@H](C(=O)NC(CO)CO)C(C2)O3)C(O)C(N)C1O` (stereo partly drawn) [AM-2-19], the Compatibility [1, 4] was “compatible”, the “Precipitate/Pellet or Coagulation Observed” value [1, 4] was “None” and the Compatibility [1, 5] was “compatible”. The “Precipitate/Pellet or Coagulation Observed” value [1, 5] was “None”, the Compatibility [1, 6] was “Not compatible” and the “Precipitate/Pellet or Coagulation Observed” value [1, 6] was “Pellet (Very Light)”. For the same compound, the Compatibility [1, 7] was “Not compatible”, the “Precipitate/Pellet or Coagulation Observed” value [1, 7] was “Pellet (Light)” and the Compatibility [1, 8] was “Not compatible”. For the same compound, the “Precipitate/Pellet or Coagulation Observed” value [1, 8] was “Pellet (Moderate)”, the Compatibility [1, 9] was “Not compatible” and the “Precipitate/Pellet or Coagulation Observed” value [1, 9] was “Pellet (Severe)”. The solution stability [2] was “unstable even over the course of hours; also recorded: lacks solution stability”, the solubility ([3]; in D5W/DSG-PEG2000 (1:3 molar ratio) without the acetate buffer) was about 100 µg/mL and the solubility ([3]; in D5W/DSG-PEG2000 with acetate buffer) was over 8000 µg/mL.

From US20250387422A1, “FORMULATION OF AN AMPHOTERICIN B HYBRID AMIDE DERIVATIVE IN DSGPEG2K MICELLES” (The Board of Trustees of the University of Illinois, priority 2022, published 2025)
